According to ChEMBL document CHEMBL3804784, “Sulfatase inhibitors for recidivist breast cancer treatment: A chemical review” (Eur J Med Chem, 2016):

Tests used:
Steryl-sulfatase [1] = molecular target: T1, Steryl-sulfatase (Homo sapiens, UniProt P08842); assay: Reversible inhibition of recombinant human estrone sulfatase using 4-methylumbelliferyl sulfate as substrate by Hanes plot analysis
T1 sequence (P08842 whole entry): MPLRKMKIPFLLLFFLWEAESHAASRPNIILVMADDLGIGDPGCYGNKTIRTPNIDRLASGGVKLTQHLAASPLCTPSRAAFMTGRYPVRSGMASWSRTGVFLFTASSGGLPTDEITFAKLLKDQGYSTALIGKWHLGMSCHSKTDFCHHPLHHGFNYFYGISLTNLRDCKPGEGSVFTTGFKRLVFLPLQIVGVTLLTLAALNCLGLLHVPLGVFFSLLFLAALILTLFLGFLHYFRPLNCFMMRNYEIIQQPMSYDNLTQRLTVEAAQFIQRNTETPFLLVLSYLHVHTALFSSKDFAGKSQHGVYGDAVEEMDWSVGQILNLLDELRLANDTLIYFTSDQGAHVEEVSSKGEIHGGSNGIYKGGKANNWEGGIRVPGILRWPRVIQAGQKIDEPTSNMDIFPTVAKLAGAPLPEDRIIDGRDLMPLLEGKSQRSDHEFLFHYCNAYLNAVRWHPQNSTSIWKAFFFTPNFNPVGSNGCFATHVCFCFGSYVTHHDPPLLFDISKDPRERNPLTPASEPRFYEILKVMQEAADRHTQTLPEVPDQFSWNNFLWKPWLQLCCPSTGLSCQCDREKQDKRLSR

Steryl-sulfatase [2] = molecular target: T1, Steryl-sulfatase; assay: Inhibition of recombinant human estrone sulfatase expressed in CHO cells using 4-methylumbelliferyl sulfate as substrate by Hanes plot analysis; format: cell-based

Ki (Steryl-sulfatase [1])	Ki (Steryl-sulfatase [2])	SMILES
500 nM		O=C(O)c1ccc2sc(C34CC5CC(CC(C5)C3)C4)cc(=O)c2c1
	890 nM	O=C(NN1[C@@H]2CC[C@H]1CC(C(=O)OCc1ccccc1)C2)NS(=O)(=O)c1ccc(Cl)cc1 (some centres not stated)
